The text below walks through data of patent US7622289B2, “Ornithine aminotransferase (OAT): a target for anticancer drugs” (Board of Regents, The University of Texas System, priority 2006, dated 2009).

The target of assay [1] is T1, OAT enzymatic activity (Mus musculus, UniProt P29758).
T1 construct: Crude mitochondrial extracts from mouse liver were assayed for ornithine aminotransferase activity; from tissue; host or cells: mouse liver, crude mitochondrial extract
T1 sequence (P29758 26-439): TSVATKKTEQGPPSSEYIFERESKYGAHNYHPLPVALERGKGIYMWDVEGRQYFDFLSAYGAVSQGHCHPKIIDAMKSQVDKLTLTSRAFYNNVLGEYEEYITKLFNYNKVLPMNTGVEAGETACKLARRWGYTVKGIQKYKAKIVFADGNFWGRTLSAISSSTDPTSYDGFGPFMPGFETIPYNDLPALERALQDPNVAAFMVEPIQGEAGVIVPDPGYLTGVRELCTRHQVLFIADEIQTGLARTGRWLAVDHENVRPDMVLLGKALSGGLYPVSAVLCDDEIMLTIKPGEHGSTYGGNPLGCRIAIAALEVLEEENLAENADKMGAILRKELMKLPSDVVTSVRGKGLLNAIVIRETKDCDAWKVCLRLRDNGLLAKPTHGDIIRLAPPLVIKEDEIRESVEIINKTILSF
Description: Ornithine aminotransferase activity in crude mitochondrial extracts from mouse liver. It is filed as biochemical. The conditions noted are these: increasing concentrations. The method, then:
To determine if diazonamide binds to OAT directly, recombinant His-tagged hOAT was produced in bacteria, purified, and incubated with compound 3-coated avidin agarose. […] We next examined the impact of diazonamide binding on OAT enzymatic activity. Crude mitochondrial extracts from mouse liver were assayed for ornithine aminotransferase activity in the presence of increasing concentrations of compounds 2 or 3.

The subject of assay [2] is tubulin. The conditions noted are these: cited from earlier work.
Assay [3] deals with HeLa cell. Description: HeLa cell growth inhibition. It counts as cell-based, human. The method, then: Biotin conjugate 3 (Table 1) was prepared to facilitate isolation of diazonamide binding proteins using avidin-based affinity chromatography. […] As a negative control, seco analog 5 was synthesized:
This molecule is identical to 3 except it lacks the biaryl linkage connecting carbons 16 and 18 (Table 1).

Assay [4] relates to fibroblast lines derived from gyrate atrophy patients harboring OAT mutations. In words: Mitotic arrest (cell rounding) in gyrate atrophy patient fibroblasts. The conditions noted are these: OAT mutations: initiator methionine, R154L, R180T, W391 nonsense. It is filed as cell-based, human. The protocol:
(§1) The OAT locus has been examined in fibroblasts derived from GA patients wherein various point and nonsense mutations have been characterized (20). Such cell lines offered another means to solidify the connection between OAT, diazonamide, and its anti-mitotic properties. When wild-type human fibroblasts were exposed to 10 nM diazonamide A for 30 hrs, >60% of cells rounded up—indicative in this case of mitotic arrest. […] Among the mutant cell lines examined only R154L and R180T variants express OAT protein.

In assay [5] the test system is wild-type human fibroblasts. In words: Mitotic arrest (cell rounding) in wild-type human fibroblasts. It counts as cell-based. The conditions noted are these: 10 nM for 30 hrs. The protocol:
as §1

For assay [6], the system named is HeLa cells. Description: Mitotic arrest and spindle phenotype in HeLa cells. It is filed as cell-based, human. The conditions noted are these: 30 nM, eighteen hours following dosage. An excerpt:
Suitable spindle assembly systems include Xenopus egg extracts, Hela cells, COS-7 cells, CHO cells, U20S cells, etc. An agent-biased spindle assembly is a spindle-assembly that has a phenotype that differs from that of the first spindle assembly (i.e. the normal control). […] The spindle phenotypes are typically visualized by fixing the cells or cell extracts and differentially staining the α-tubulin and DNA [5]. Spindle assembly can also be visualized by live cell imaging.
Biotin conjugate 3 (Table 1) was prepared to facilitate isolation of diazonamide binding proteins using avidin-based affinity chromatography. […] As a negative control, seco analog 5 was synthesized: […]

Assay [7] concerns BS-C-1 and PTK2 culture. Description: Interphase microtubules in BS-C-1 and PTK2 culture. It is filed as cell-based. The conditions noted are these: at GI50 concentrations. The protocol: COMPARE pattern analysis of observed cytotoxic/cytostatic activities implied a mechanistic correlation between diazonamide and microtubule de-polymerizing agents such as maytansine and vinblastine. […] To test this possibility, a synthetic variant of diazonamide A (2, Table 1) was prepared.

Assay [8] relates to cultured human cancer cell. The conditions noted are these: cited from earlier work.
Assay [9] concerns endogenous OAT in HeLa cells. In words: OAT siRNA knock-down in HeLa cells. It counts as cell-based, human. The conditions noted are these: added to OAT siRNA-treated HeLa cells. An excerpt:
OAT is well characterized as a mitochondrial matrix enzyme. In this context it regulates flux through the urea cycle and couples, indirectly, proline biosynthesis to the availability of fumarate for consumption in the TCA cycle (19). For reasons not completely understood, mutations in the human enzyme are associated with a progressive degeneration of the retina and choroid termed gyrate atrophy (20).

Residues, ends and D or L forms follow the SMILES beside them. *: point of attachment. Cbz = O=C(OCc1ccccc1)*; CH2F = FC* Some results are limits rather than exact numbers.

Take `C#CC(N)CCC(=O)O` (centres unmarked) [4-aminohex-5-ynoic acid]: the “inhibition of conversion of L-ornithine to L-Δ1-pyrroline-5-carboxylic acid” value in assay [1] was “suppressed the activity in a dose dependent manner”.
As a reminder, the GI50 is the concentration at which growth is held to half of that of the control. With `CC(C)[C@H](O)C(=O)N[C@H]1Cc2ccc3c(c2)[C@]24C5=C(N=C(O5)[C@H](C(C)C)NC1=O)c1nc(Cl)c(o1)-c1c(Cl)[nH]c5cccc(c15)-c1cccc2c1N[C@@H]4O3` [Compound 1, (-)-diazonamide A], in [2], the “competition with vinca alkaloids or nocadazole for tubulin binding” value is listed as “did not compete” and the “purified tubulin polymerization in vitro” value is recorded as “inhibit purified tubulin polymerization in vitro”. This compound also had a GI50 in [3] of 5 nM. The “response of gyrate atrophy fibroblast lines” value in [4] is “resistant to the compound”. The “cells rounded up (mitotic arrest)” value in [5] is reported as > 60%. Also, the spindle phenotype entry in assay [6] is “multi-pole spindle phenotype with misaligned chromosomes”. In addition, in assay [7], the “impact on interphase microtubules” value was “little impact on interphase microtubules”. In assay [8], the “concentration inhibiting cultured human cancer cell growth” value is given as “low nanomolar concentrations”.
Consider `N=C(N)NCCC[C@H](N)C(=O)O` [L-arginine], for which, in assay [9], the “blocking of cell death in OAT siRNA-treated cells” value was “failed to attenuate the rate of death or restore normal spindle assembly”.
Same read-out and setting: for `CC(NC(=O)C(NC(=O)OCc1ccccc1)C(C)C)C(=O)NC(CC(=O)O)C(=O)CF` (stereo not drawn) [Z-VAD] (Cbz-Val-Ala-Asp-CH2F; configuration not given here) the value was “not blocked”.
